For series [1] the following is noted: cited from earlier work.
For the next series, the system named is rCYP3A5. The conditions noted are these: corrected for fumic & ISEF, cited from earlier work; for Km: read-out: rCYP3A5 Km.
For series [2] the following is noted: cited from earlier work. This is another data set of the same source.
For series [3], the system named is CYP3A4. As to conditions: human, in vivo, po, cited from earlier work.
The conditions of series [4]: cited from earlier work. The source holds these as a separate data set.
The subject of series [5] is CYP3A. As to conditions: mean of four human hepatocyte donors; three-parameter fit; Indmax = Emax + 1.
The test system of series [6] is CYP3A. The series can be described thus: in vitro. The conditions noted are these: human, cryopreserved human hepatocytes, probe testosterone (6β-hydroxytestosterone formation).
Series [7] deals with CYP3A. The conditions noted are these: mean of four human hepatocyte donors; three-parameter fit; Indmax = Emax + 1. The source holds these as a separate data set.
Series [8] concerns CYP3A. The series can be described thus: in vitro. As to conditions: human, cryopreserved human hepatocytes.
Series [9] concerns CYP3A4. Briefly: Rifampicin-mediated clinical drug-drug interaction studies with CYP3A4 probe substrates. As to conditions: for reduction in MDZ AUC, median: rifampicin, across clinical studies of Table 3; for fold induction: human, plasma, read-out: Geometric mean fold induction. The series is classed as in vivo, human.
The next series has as its system rUGT1A4. As to conditions: corrected for fumic & ISEF, ref Meta-analysis (Emoto et al., 2003), (Galetin et al., 2004) and 7 others incl. (Hyland et al., 2009), cited from earlier work.
Series [10] has as its system CYP3A4. The conditions noted are these: read-out: CYP3A4 Ki; ref (Nielsen et al., 1999); (Ngui et al., 2000); (Guengerich et al., 1986); cited from earlier work.
The next series has as its system CYP2D6. Further details: method as in ref (Ching et al., 1995); (Broly et al., 1989); (Lalovic et al., 2004). As to conditions: ref (Ching et al., 1995); (Broly et al., 1989); (Lalovic et al., 2004); cited from earlier work.
For series [11] the following is noted: ref (Burman et al., 2001); cited from earlier work.
The subject of series [12] is CYP3A4. The conditions noted are these: human, in vivo, cited from earlier work.
The test system of a further series is rCYP2J2. The conditions noted are these: corrected for fumic & ISEF, ref (Von Moltke et al., 1999), cited from earlier work; for Km: read-out: rCYP2J2 Km.
In the next series the test system is rCYP2C19. The conditions noted are these: M3, corrected for fumic & ISEF, ref (Von Moltke et al., 1999), cited from earlier work.
Another series has as its system rCYP2C9. As to conditions: corrected for fumic & ISEF, ref (Von Moltke et al., 1999), cited from earlier work; for Km: read-out: rCYP2C9 Km.
The test system of the next series is rCYP2D6. The conditions noted are these: corrected for fumic & ISEF, ref (Von Moltke et al., 1999), cited from earlier work; for Km: read-out: rCYP2D6 Km.
For another series, the system named is rCYP1A2. As to conditions: corrected for fumic & ISEF, ref (Von Moltke et al., 1999), cited from earlier work; for Km: read-out: rCYP1A2 Km.
Setting [13] is: 1-hydroxylation, ref Meta-analysis (Emoto et al., 2003), (Galetin et al., 2004) and 7 others.
[14] abbreviates: 4-hydroxylation, ref Meta-analysis (Emoto et al., 2003), (Galetin et al., 2004) and 7 others.

A word on the Km: it is the concentration of substrate that gives half-maximal velocity. What is called EC50 is the concentration needed to bring the measured effect to its halfway point. Low readings indicate greater potency, high ones weaker potency. For orientation: Ki means a dissociation constant, usually derived from enzyme kinetics or from competition with a known ligand.

Where “and” joins values, the source holds several entries; their conditions need not be identical. Equal values may be shown once. Read-outs that look alike come from different tables or passages of the source.

Consider `C=C[C@@]1(O)CN2CC[C@H]1C[C@@H]2[C@@H](O)c1ccnc2ccc(OC)cc12` [3-OH Quinidine], for which, in series [1] (in vivo), the CLR is recorded as 16.7 L/h and the CLpo was 52.6 L/h.

For the compound `Cc1nnc2n1-c1ccc(Cl)cc1C(c1ccccc1)=NC2` [Alprazolam, alprazolam], the Km was 211 µM with rCYP3A5 (4-hydroxylation, ref Meta-analysis (Hirota et al., 2001), (Galetin et al., 2004) (Williams et al., 2002)) and 205 µM in the series with rCYP3A5 (second pathway, printed 'oxylation', ref Meta-analysis (Hirota et al., 2001), (Galetin et al., 2004) (Williams et al., 2002)). The ka in [2] (ref (Smith et al., 1984), (Lin et al., 1988), (Kirkwood et al., 1991), (Amchin et al., 1998), (Greenblatt et al., 1983)) is 3.56 h⁻¹. In [1] (in vivo), the CLR is 0.678 L/h. The AUC in the series with CYP3A4 [3] (1 mg) is 242 (31.3) ng/mL.h. Further, the AUCi in the series with CYP3A4 [3] is reported as 28.4 (23.9) ng/mL.h. Besides, the “Vss (Minimal PBPK)” value in [4] (in vivo) is on record as 0.99 L/kg.

Regarding `NC(=O)N1c2ccccc2C2OC2c2ccccc21` (stereo not shown) [Carbamazepine-10,11-epoxide], in series [1] (in vivo), the CLR was 0.14 L/h and the CLpo was 6.07 L/h.

In the case of `O=C1Nc2ccc(Cl)cc2[C@@](C#CC2CC2)(C(F)(F)F)O1` [Efavirenz], in the series on CYP3A [5], the “mRNA Indmax” value was determined as […]. Also, the EC50 in the series with CYP3A [6] is […]; with CYP3A [8] it was […]. For the same compound, the “Activity Indmax” value in the series on CYP3A [7] worked out at […].

Turning to `Cc1ncc2n1-c1ccc(Cl)cc1C(c1ccccc1F)=NC2` [Midazolam, midazolam], the entries for the “rCYP3A5 Vmax” value with rCYP3A5 (setting [13]) and in the series with rCYP3A5 (setting [14]) were 19.7 µL/min/pmol and 4.03 µL/min/pmol, respectively. Further, the Km is 4.16 µM in the series with rCYP3A5 (setting [13]), 34.8 µM in the series with rCYP3A5 (setting [14]) and 40.3 µM in the series with rUGT1A4 (read-out: rUGT1A4 Km). The ka in series [2] (ref (Allonen et al., 1981)) is 3 h⁻¹. Besides, the “reduction in MDZ AUC, median” value is 17.5 fold and 18.1 fold in the series on CYP3A4 [9] (MDZ administered orally, listed as MDZ); 2.0 fold in the series on CYP3A4 [9] (MDZ i.v. administration). Besides, the fold induction in the series on CYP3A4 [9] (iv) was 1.99; in the series with CYP3A4 [9] (po) it was 18.1. Besides, in the series with CYP3A4 [9] (meta-analysis of studies where midazolam was administered orally with rifampicin), the “1/AUC ratio, CI of the observations” value is recorded as 5.4-60.4. In addition, the CLR in series [1] (in vivo) is recorded as 0.085 L/h. Besides, the Fe in series [1] (in vivo) is given as 0.0033. Also, in the series on CYP3A4 [3] (0.075 mg), the AUC ratio is reported as 2.3 fold. In [4] (in vivo), the “Vss (Minimal PBPK)” value is listed as 1 L/kg. For the same compound, in the series on rUGT1A4, the “rUGT1A4 Vmax” value is on record as 445 µL/min/mg.

On to `C=C[C@H]1C[N@@]2CC[C@H]1C[C@@H]2[C@@H](O)c1ccnc2ccc(OC)cc12` [Quinidine, quinidine], for which the results for the Ki in the series with CYP3A4 [10] and in the series with CYP2D6 were 40 µM and […], respectively.

Consider `CO[C@H]1/C=C/O[C@@]2(C)Oc3c(C)c(O)c4c(O)c(c(/C=N/N5CCN(C)CC5)c(O)c4c3C2=O)NC(=O)/C(C)=C\C=C\[C@H](C)[C@H](O)[C@@H](C)[C@@H](O)[C@@H](C)[C@H](OC(C)=O)[C@@H]1C` [Rifampicin, rifampicin], for which the fu in series [11] is 0.15. In addition, the CLiv in [1] (in vivo) is 7 L/h. The CLR in series [1] (ref Polk 2001) was 1.2 L/h. In [4] (ref (Loos et al., 1985)), the “Vss (Minimal PBPK)” value is 0.33 L/kg.

Consider `Cc1nnc2n1-c1ccc(Cl)cc1C(c1ccccc1Cl)=NC2` [Triazolam, triazolam], for which, in the series with CYP3A4 [3] (0.5 mg), the AUC was 14.8 (21.4) ng/mL.h. Also, in the series on CYP3A4 [3], the “1/AUC Ratio” value is given as 20.0 and the AUCi was 0.74 (59.8) ng/mL.h.

On to `Cc1ccc(-c2nc3ccc(C)cn3c2CC(=O)N(C)C)cc1` [Zolpidem, zolpidem], for which the AUC was 0.235 (70.4) mg/L.h with CYP3A4 [12] (5 mg) and 1110 (36.9) ng/mL.h in the series on CYP3A4 [3] (20 mg). Further, the entries for the “1/AUC Ratio” value in the series with CYP3A4 [12] and in the series with CYP3A4 [3] were 2.31 and 3.34, respectively. In addition, the values for the AUCi with CYP3A4 [12] and with CYP3A4 [3] were 0.102 (58.1) mg/L.h and 332 (56.4) ng/mL.h, respectively. For the same compound, in the series on rCYP2J2 (M4), the “rCYP2J2 Vmax” value is given as 6.86 µL/min/pmol. The Km in the series with rCYP2J2 (M3) was 340 µM; in the series with rCYP2J2 (M4), 399 µM; with rCYP2C19 (read-out: rCYP2C19 Km), 133 µM; in the series with rCYP2C9 (M3), 103 µM; in the series on rCYP2C9 (M4), 81 µM; in the series on rCYP2D6 (M3), 190 µM. Also, the Km with rCYP2D6 (M4) is 214 µM; in the series with rCYP1A2 (M3) it was 38 µM; in the series on rCYP1A2 (M4), 40 µM. Besides, in [2] (ref (Olubodun et al., 2003), (Patat et al., 1994)), the ka is 2.25 h⁻¹. In addition, the “rCYP2C19 Vmax” value in the series on rCYP2C19 is on record as 0.8 µL/min/pmol. Also, the “rCYP2C9 Vmax” value in the series on rCYP2C9 (M3) was 17.42 µL/min/pmol; in the series on rCYP2C9 (M4), 0.888 µL/min/pmol. Besides, the CLR in series [1] (in vivo) is reported as 0.18 L/h. The fe in series [1] (in vivo) is listed as 0.01. Besides, the “rCYP2D6 Vmax” value is 1.44 µL/min/pmol with rCYP2D6 (M3) and 4.68 µL/min/pmol in the series with rCYP2D6 (M4). In addition, the “Vss (Minimal PBPK)” value in series [4] (in vivo) was 0.68 L/kg. In addition, the figures for the “rCYP1A2 Vmax” value in the series with rCYP1A2 (M3) and with rCYP1A2 (M4) were 7.99 µL/min/pmol and 0.777 µL/min/pmol, respectively.

Values taken from PMC4885489, “Prediction of Drug-Drug Interactions Arising from CYP3A induction Using a Physiologically Based Dynamic Model” (Drug Metabolism and Disposition, 2016).
